Patent US12577226B2, “Compounds for treating Huntington's disease” (PTC THERAPEUTICS, INC., priority 2019, dated 2026)

These molecules were tested on Endogenous Huntingtin Protein (capture with MW1 (expanded polyglutamine) or MAB2166 antibody) (assay: Endogenous Huntingtin Protein Assay (ELISA-based Meso Scale Discovery electrochemiluminescence assay)). Details: MSD electrochemiluminescence platform.
Assay type: cell-based
Method: Compounds of Formula (I), Formula (II), or Formula (III) were tested using the Meso Scale Discovery (MSD) Assay provided in International Application No. PCT/US2016/066042, filed on Dec. 11, 2016 and claiming priority to U.S. Provisional Application U.S. 62/265,652 filed on Dec. 10, 2015, the entire contents of which are incorporated herein by reference.
The Endogenous Huntingtin Protein assay used in Example 1 was developed using the ELISA-based MSD electrochemiluminescence assay platform.
Meso Scale Discovery (MSD) 96-well or 384-well plates were coated overnight at 4° C. with MW1 (expanded polyglutamine) or MAB2166 monoclonal antibody (for capture) at a concentration of 1 μg/mL in PBS (30 μL per well). Plates were then washed three times with 300 μL wash buffer (0.05% Tween-20 in PBS) and blocked (100 μL blocking buffer; 5% BSA in PBS) for 4-5 hours at room temperature with rotational shaking and then washed three times with wash buffer.
Samples (25 μL) were transferred to the antibody-coated MSD plate and incubated overnight at 4° C. After removal of the lysates, the plate was washed three times with wash buffer, and 25 μL of #5656S (Cell signaling; rabbit monoclonal) secondary antibody (diluted to 0.25 μg/mL in 0.05% Tween-20 in blocking buffer) was added to each well and incubated with shaking for 1 Hour at room temperature. Following incubation with the secondary antibody, the wells were rinsed with wash buffer after which 25 μL of goat anti-rabbit SULFO TAG secondary detection antibody (required aspect of the MSD system) (diluted to 0.25 μg/mL in 0.05% Tween-20 in blocking buffer) was added to each well and incubated with shaking for 1 hour at room temperature. After rinsing three times with wash buffer, 150 μL of read buffer T with surfactant (MSD) were added to each empty well, and the plate was imaged on a SI 6000 imager (MSD) according to manufacturers' instructions provided for 96- or 384-well plates.

`Cn1cc2cc(-c3cnc(-c4ccc(N5CCNC6(CC6)C5)nn4)c(O)c3)cc(F)c2n1` [Compound 98, 2-[6-(4,7-diazaspiro[2.5]octan-7-yl)pyridazin-3-yl]-5-(7-fluoro-2-methyl-2H-indazol-5-yl)pyridin-3-ol] and `[2H]C([2H])([2H])n1cc(-c2cnc(-c3ccc(O[C@H]4C[C@]5(C)CC[C@](C)(C4)N5)nn3)c(O)c2)cn1` [Compound 33, 2-(6-{[(1R,3s,5S)-1,5-dimethyl-8-azabicyclo[3.2.1]octan-3-yl]oxy}pyridazin-3-yl)-5-[1-(^2H3)methyl-1H-pyrazol-4-yl]pyridin-3-ol and 2-(6-{[(1S,3r,5R)-1,5-dimethyl-8-azabicyclo[3.2.1]octan-3-yl]oxy}pyridazin-3-yl)-5-[1-(^2H3)methyl-1H-pyrazol-4-yl]pyridin-3-ol] cannot be ordered by IC50: ≤ 100 nM for the first, ≤ 100 nM for the second.

`Cc1cn2cc(-c3cnc(-c4cnc(N5CCN(C)CC5)nn4)c(O)c3)cc(C)c2n1` [Compound 153, 5-(2,8-dimethylimidazo[1,2-a]pyridin-6-yl)-2-[3-(4-methylpiperazin-1-yl)-1,2,4-triazin-6-yl]pyridin-3-ol] and `Oc1cc(-n2nccn2)cnc1-c1cnc(N2CCN[C@@H](C3CC3)C2)nn1` [Compound 159, 2-{3-[(3S)-3-cyclopropylpiperazin-1-yl]-1,2,4-triazin-6-yl}-5-(2H-1,2,3-triazol-2-yl)pyridin-3-ol] cannot be ordered by IC50: ≤ 100 nM for the first, 100 to 500 nM for the second.

First: CC1(C)CC(Oc2ncc(-c3ncc(-c4cn[nH]c4)cc3O)nn2)CC(C)(C)N1 [Compound 141, 5-(1H-pyrazol-4-yl)-2-{3-[(2,2,6,6-tetramethylpiperidin-4-yl)oxy]-1,2,4-triazin-6-yl}pyridin-3-ol]
Second: CC1(C)CC(Oc2ccc(-c3ncc(-c4cn[nH]c4)cc3O)nn2)CC2(COC2)N1 (stereo not drawn) [Compound 114, 2-{6-[(6,6-dimethyl-2-oxa-5-azaspiro[3.5]nonan-8-yl)oxy]pyridazin-3-yl}-5-(1H-pyrazol-4-yl)pyridin-3-ol]
The IC50 of the first is higher: 500 to 1000 nM for the first, ≤ 100 nM for the second. The second is the more potent here.

`CC1(C)C[C@H](Oc2ccc(-c3ncc(-c4ncco4)cc3O)nn2)[C@H](F)C(C)(C)N1` (single isomer, unassigned) [Compound 12, 2-(6-{[(3R,4S)-3-fluoro-2,2,6,6-tetramethylpiperidin-4-yl]oxy}pyridazin-3-yl)-5-(1,3-oxazol-2-yl)pyridin-3-ol or 2-(6-{[(3S,4R)-3-fluoro-2,2,6,6-tetramethylpiperidin-4-yl]oxy}pyridazin-3-yl)-5-(1,3-oxazol-2-yl)pyridin-3-ol] and “2-(6-{[(3R,4S)-3-fluoro-2,2,6,6-tetramethylpiperidin-4-yl]oxy}pyridazin-3-yl)-5-(2-methyl[1,2,4]triazolo[1,5-a]pyridin-6-yl)pyridin-3-ol and 2-(6-{[(3S,4R)-3-fluoro-2,2,6,6-tetramethylpiperidin-4-yl]oxy}pyridazin-3-yl)-5-(2-methyl[1,2,4]triazolo[1,5-a]pyridin-6-yl)pyridin-3-ol [Compound 55]” cannot be ordered by IC50: ≤ 100 nM for the first, ≤ 100 nM for the second.

`Cc1cn2cc(-c3cnc(-c4ccc(N5C[C@@H](C)N[C@@H](C)C5)nn4)c(O)c3)cnc2n1` [Compound 115, 2-{6-[(3R,5S)-3,5-dimethylpiperazin-1-yl]pyridazin-3-yl}-5-(2-methylimidazo[1,2-a]pyrimidin-6-yl)pyridin-3-ol and 2-{6-[(3S,5R)-3,5-dimethylpiperazin-1-yl]pyridazin-3-yl}-5-(2-methylimidazo[1,2-a]pyrimidin-6-yl)pyridin-3-ol] and `[2H]C([2H])([2H])n1cc(-c2cnc(-c3ccc(O[C@@H]4C[C@H](C)NC5(CC5)C4)nn3)c(O)c2)cn1` [Compound 83, 2-(6-{[(5S,7R)-5-methyl-4-azaspiro[2.5]octan-7-yl]oxy}pyridazin-3-yl)-5-[1-(^2H3)methyl-1H-pyrazol-4-yl]pyridin-3-ol] fall in the same range of IC50: 100 to 500 nM for the first, 100 to 500 nM for the second.

`C[C@H]1CN(c2ccc(-c3ncc(-c4cc(F)c5nn(C)cc5c4)cc3O)nn2)CCN1` [Compound 103, 5-(7-fluoro-2-methyl-2H-indazol-5-yl)-2-{6-[(3S)-3-methylpiperazin-1-yl]pyridazin-3-yl}pyridin-3-ol] and `COc1cc(-c2cnc(-c3ccc(N4CC[C@@H](NC(C)(C)C)C4)nn3)c(O)c2)ncn1` [Compound 30, 2-{6-[(3R)-3-(tert-butylamino)pyrrolidin-1-yl]pyridazin-3-yl}-5-(6-methoxypyrimidin-4-yl)pyridin-3-ol] cannot be ordered by IC50: ≤ 100 nM for the first, ≤ 100 nM for the second.

`Oc1cc(-n2nccn2)cnc1-c1ccc(OC2CC3(CC3)NC3(CC3)C2)nn1` (stereo not drawn) [Compound 73, 2-{6-[(4-azadispiro[2.1.2^5.3^3]decan-9-yl)oxy]pyridazin-3-yl}-5-(2H-1,2,3-triazol-2-yl)pyridin-3-ol] and `[2H]C([2H])([2H])n1cc(-c2cnc(-c3cnc(N(C)C4CC(C)(C)NC(C)(C)C4)nn3)c(O)c2)cn1` [Compound 142, 5-[1-(^2H3)methyl-1H-pyrazol-4-yl]-2-{3-[methyl(2,2,6,6-tetramethylpiperidin-4-yl)amino]-1,2,4-triazin-6-yl}pyridin-3-ol] cannot be ordered by IC50: 100 to 500 nM for the first, ≤ 100 nM for the second.

“5-(2,4-dimethyl-1,3-benzoxazol-6-yl)-2-(6-{[(3R,4S)-3-fluoro-2,2,6,6-tetramethylpiperidin-4-yl]oxy}pyridazin-3-yl)pyridin-3-ol and 5-(2,4-dimethyl-1,3-benzoxazol-6-yl)-2-(6-{[(3S,4R)-3-fluoro-2,2,6,6-tetramethylpiperidin-4-yl]oxy}pyridazin-3-yl)pyridin-3-ol [Compound 56]” and `CC1(C)C[C@H](Oc2ccc(-c3ncc(-n4nccn4)cc3O)nn2)[C@H](F)C(C)(C)N1` (single isomer, unassigned) [Compound 11, 2-(6-{[(3R,4S)-3-fluoro-2,2,6,6-tetramethylpiperidin-4-yl]oxy}pyridazin-3-yl)-5-(2H-1,2,3-triazol-2-yl)pyridin-3-ol or 2-(6-{[(3S,4R)-3-fluoro-2,2,6,6-tetramethylpiperidin-4-yl]oxy}pyridazin-3-yl)-5-(2H-1,2,3-triazol-2-yl)pyridin-3-ol] cannot be ordered by IC50: ≤ 100 nM for the first, ≤ 100 nM for the second.

First: 2-{6-[(3R,5R)-3,5-dimethylpiperazin-1-yl]pyridazin-3-yl}-5-(7-fluoro-2-methyl-2H-indazol-5-yl)pyridin-3-ol and 2-{6-[(3S,5R)-3,5-dimethylpiperazin-1-yl]pyridazin-3-yl}-5-(7-fluoro-2-methyl-2H-indazol-5-yl)pyridin-3-ol [Compound 106]
Second: CC(C)C1CN(c2ccc(-c3ncc(/C=C/c4cn[nH]c4)cc3O)nn2)CCN1 (stereo not drawn) [Compound 130, 2-{6-[3-(propan-2-yl)piperazin-1-yl]pyridazin-3-yl}-5-[(E)-2-(1H-pyrazol-4-yl)ethenyl]pyridin-3-ol]
The IC50 of the first is lower: ≤ 100 nM for the first, 500 to 1000 nM for the second. The first is the more potent here.

`C[C@@H]1CN(c2cnc(-c3ncc(-c4cc(F)c5nn(C)cc5c4)cc3O)nn2)C[C@H](C)N1` [Compound 164, 2-{6-[(3R,5S)-3,5-dimethylpiperazin-1-yl]-1,2,4-triazin-3-yl}-5-(7-fluoro-2-methyl-2H-indazol-5-yl)pyridin-3-ol and 2-{6-[(3S,5R)-3,5-dimethylpiperazin-1-yl]-1,2,4-triazin-3-yl}-5-(7-fluoro-2-methyl-2H-indazol-5-yl)pyridin-3-ol] and “2-(3-{[(3S,4S)-3-fluoro-2,2,6,6-tetramethylpiperidin-4-yl]amino}-1,2,4-triazin-6-yl)-5-(1H-pyrazol-4-yl)pyridin-3-ol and 2-(3-{[(3R,4R)-3-fluoro-2,2,6,6-tetramethylpiperidin-4-yl]amino}-1,2,4-triazin-6-yl)-5-(1H-pyrazol-4-yl)pyridin-3-ol [Compound 139]” cannot be ordered by IC50: 100 to 500 nM for the first, ≤ 100 nM for the second.

`Cc1ncc(-c2cnc(-c3ccc(N4CC[C@@H](NC(C)(C)C)C4)nn3)c(O)c2)o1` [Compound 76, 2-{6-[(3R)-3-(tert-butylamino)pyrrolidin-1-yl]pyridazin-3-yl}-5-(2-methyl-1,3-oxazol-5-yl)pyridin-3-ol] and `CN(c1ncc(-c2ncc(-c3cn[nH]c3)cc2O)nn1)C1CC(C)(C)NC(C)(C)C1` [Compound 135, 2-{3-[methyl(2,2,6,6-tetramethylpiperidin-4-yl)amino]-1,2,4-triazin-6-yl}-5-(1H-pyrazol-4-yl)pyridin-3-ol] cannot be ordered by IC50: ≤ 100 nM for the first, ≤ 100 nM for the second.

First: Oc1cc(-c2cn[nH]c2)cnc1-c1ccc(OC2CC3(CC3)NC3(CC3)C2)nn1 (stereo not drawn) [Compound 31, 2-{6-[(4-azadispiro[2.1.2^5.3^3]decan-9-yl)oxy]pyridazin-3-yl}-5-(1H-pyrazol-4-yl)pyridin-3-ol]
Second: CC1CN(c2ccc(-c3ncc(NCc4cccc5cccnc45)cc3O)nn2)CCN1 (stereo not drawn) [Compound 113, 2-[6-(3-methylpiperazin-1-yl)pyridazin-3-yl]-5-{[(quinolin-8-yl)methyl]amino}pyridin-3-ol]
The IC50 of the first is lower: 100 to 500 nM for the first, 500 to 1000 nM for the second. The first is the more potent here.
